Experimental findings from patent publication US20110275559A1, “Long-Acting Y2 and/or Y4 Receptor Agonists” (Novo Nordisk A/S, priority 2008, published 2011) are described below.

A short description of this data set: in vivo. The note with it: Göttingen, minipig, iv. The protocol: (§1) The mini-pigs had two central venous catheters inserted which were used for intra venous (i.v.) dosing and bloodsampling. Compound was dissolved in 50 mM K2HPO4, 0.05% tween 80, pH=8.0 to a concentration of 180 nmol/ml. The pigs were dosed with 6 nmol compound/kg body weight. […] The blood samples were collected into test tubes containing EDTA buffer for stabilization and kept on ice for max. 20 minutes before centrifugation. The centrifugation procedure to separate plasma was; 4° C., 3000 rpm for 10 minutes. Plasma were collected and immediately transferred to Micronic tubes stored at −20° C. until assayed.
An additional mini-pig PK assay was used for measuring PK of the compounds of the invention. […] The animals had two central venous catheters inserted which were used for intra venous (i.v.) dosing and blood sampling. Compounds were dissolved in 10 mM Na2HPO4, 150 mM NaCl, 0.01% tween 80, pH=4.0 to concentrations in the range of 40 nmol/ml to 200 nmol/ml. The mini-pigs were dosed i.v. with 10 nmol compound/kg body weight, occasionally other doses such as 4 nmol/kg, 30 nmol/kg or 50 nmol/kg were administered. Each compound was dosed to 3 or 4 mini-pigs, and two compounds may be given simultaneously to the same animal. Blood were sampled pre-dose and 12 times during the first 10 hours post-dose. Blood were furthermore sampled once daily until 13 days post dosing. The blood samples were collected into test tubes containing EDTA buffer, trasylol and Val-Pyr for stabilization and kept on ice for max. 20 minutes. Samples were centrifuged at 4° C., 2000G for 10 minutes to separate plasma. Plasma were collected and immediately transferred to Micronic tubes stored at −20° C. until assayed.
Plasma samples were analysed by LC-MS on an LTQ-Orbitrap (ThermoFisher Scientific, Bremen) to which Accela HPLC pumps and an autosampler were connected (both from ThermoFisher). […] HPLC was performed on a Jupiter Proteo column (4μ) 90A (50×2.0 mm ID). […] The flow rate was 0.3 ml/min. For analysis of plasma samples, 30 μl plasma was precipitated with 90 μl ethanol. […] The heptane phase was removed after 5 min and the remaining solution was analysed by LC-MS as described above. For construction of plasma standards, compound was spiked to plasma (minipig) at the following concentrations: 1 nM, 2 nM, 5 nM, 10 nM, 20 nM, 50 nM, 100 nM, 200 nM. The plasma standards were treated as the samples. The lower limit of quantification was estimated to 2 nM.
Non-compartmental analysis (NCA): Plasma concentration-time profiles were analyzed by non-compartmental pharmacokinetics analysis (NCA) using WinNonlin Professional 5.0 (Pharsight Inc., Mountain View, Calif., USA). NCA was performed using the individual plasma concentration-time profiles from each animal.
For determination of plasma concentration of the PYY and PP peptide derivative or analogues thereof the following Methods 1-4 were used.
as §1, with “bloodsampling. The compound” for “bloodsampling. Compound”, “to an appropriate” for “to a”, “concentration (e.g. 25-500 nmol/mL).” for “concentration of 180 nmol/ml.”, “dosed intravenously (i.v.) or subcutaneously (s.c.)” for “dosed”, “with between 1 and 30” for “with 6”, “buffer (with Aprotinin 15000 KIE/mL and Val-Pyr 0.30 mM)” for “buffer”
An additional mini-pig PK assay was used for measuring PK of the compounds of the invention. […] The animals had two central venous catheters inserted which were used for intra venous (i.v.) dosing and blood sampling.

*1 amine or outer side, *2 acyl side, *3 side chain or, on linkers, in order; H or OH if unused. Where a SMILES comes first, the peptide text is derived from it. Side-chain parts run from the residue outwards. The star is where a group is joined. C20 diacid = O=C(O)CCCCCCCCCCCCCCCCCCC(=O)*; C18 diacid = O=C(O)CCCCCCCCCCCCCCCCC(=O)*; γGlu = O=C(O)[C@H](CCC(=O)[*:2])N[*:1]; Trx = NC[C@H]1CC[C@H](C(=O)O)CC1; AEEA = NCCOCCOCC(=O)O

As a reminder, the half-life is the time needed for the level to fall by half in the phase considered. High values mean slow loss, low ones fast loss. For the setting “20 nmol/kg”, `CC[C@H](C)[C@H](NC(=O)[C@H](Cc1ccc(O)cc1)NC(=O)[C@H](CCCNC(=N)N)NC(=O)[C@H](CCCNC(=N)N)NC(=O)[C@H](CC(C)C)NC(=O)[C@H](CC(=O)O)NC(=O)[C@H](C)NC(=O)[C@H](C)NC(=O)[C@H](Cc1ccc(O)cc1)NC(=O)[C@H](CCC(N)=O)NC(=O)[C@H](C)NC(=O)[C@H](CCSC)NC(=O)[C@H](CCC(N)=O)NC(=O)[C@H](CCC(=O)O)NC(=O)[C@@H]1CCCN1C(=O)[C@H](CCCCNC(=O)COCCOCCNC(=O)COCCOCCNC(=O)CC[C@H](NC(=O)CCCCCCCCCCCCCCCCC(=O)O)C(=O)O)NC(=O)[C@H](C)NC(=O)[C@H](CC(N)=O)NC(=O)[C@H](CC(=O)O)NC(=O)CNC(=O)[C@@H]1CCCN1C(=O)[C@H](Cc1ccc(O)cc1)NC(=O)[C@@H](NC(=O)[C@@H]1CCCN1C(=O)[C@H](CCC(=O)O)NC(=O)[C@H](CC(C)C)NC(=O)[C@@H]1CCCN1C(=O)[C@H](C)N)C(C)C)C(=O)N[C@@H](CC(N)=O)C(=O)N[C@@H](CCSC)C(=O)N[C@@H](CC(C)C)C(=O)N[C@H](C(=O)N[C@@H](CCCNC(=N)N)C(=O)N1CCC[C@H]1C(=O)N[C@@H](CCCNC(=N)N)C(=O)N[C@@H](Cc1ccc(O)cc1)C(N)=O)[C@@H](C)O` [SEQ ID NO: 24, N-epsilon13-[2-(2-{2-[2-(2-{2-[(S)-4-Carboxy-4-(17-carboxyheptadecanoylamino)butyrylamino]ethoxy}ethoxy)acetylamino]-ethoxy}ethoxy)acetyl][Lys13]hPP(1-36)] (H-APLEPVYPGDNAK([AEEA-AEEA-γGlu-C18 diacid])PEQMAQYAADLRRYINMLTRPRY-NH2; N-terminus and C-terminus assumed) gave a half-life of 3.5 h.

`CC[C@H](C)[C@H](NC(=O)[C@H](Cc1ccc(O)cc1)NC(=O)[C@H](CCCNC(=N)N)NC(=O)[C@H](CCCNC(=N)N)NC(=O)[C@H](CC(C)C)NC(=O)[C@H](CC(=O)O)NC(=O)[C@H](C)NC(=O)[C@H](C)NC(=O)[C@H](Cc1ccc(O)cc1)NC(=O)[C@H](CCC(N)=O)NC(=O)[C@H](C)NC(=O)[C@H](CC(C)C)NC(=O)[C@H](CCC(N)=O)NC(=O)[C@H](CCC(=O)O)NC(=O)[C@@H]1CCCN1C(=O)[C@@H](NC(=O)[C@H](C)NC(=O)[C@H](CC(N)=O)NC(=O)[C@H](CCCCNC(=O)COCCOCCNC(=O)COCCOCCNC(=O)CC[C@H](NC(=O)[C@H]1CC[C@H](CNC(=O)CCCCCCCCCCCCCCCCCCC(=O)O)CC1)C(=O)O)NC(=O)CNC(=O)[C@@H]1CCCN1C(=O)[C@H](Cc1ccc(O)cc1)NC(=O)[C@@H](NC(=O)[C@@H]1CCCN1C(=O)[C@H](CCC(=O)O)NC(=O)[C@H](CC(C)C)NC(=O)[C@@H]1CCCN1)C(C)C)[C@@H](C)O)C(=O)N[C@@H](CC(N)=O)C(=O)N[C@@H](CC(C)C)C(=O)N[C@@H](CC(C)C)C(=O)N[C@H](C(=O)N[C@@H](CCCNC(=N)N)C(=O)N[C@@H](CCC(N)=O)C(=O)N[C@@H](CCCNC(=N)N)C(=O)N[C@@H](Cc1ccc(O)cc1)C(N)=O)[C@@H](C)O` [SEQ ID NO: 39, N-epsilon10-[2-(2-{2-[2-(2-{2-[(S)-4-Carboxy-4-({trans-4-[(19-carboxynonadecanoylamino)methyl]cyclohexanecarbonyl}amino)butyrylamino]-ethoxy}ethoxy)acetylamino]ethoxy}ethoxy)acetyl][Lys10,Leu17,Leu30,Gln34]hPP2-36] (H-PLEPVYPGK([AEEA-AEEA-γGlu-Trx-C20 diacid])NATPEQLAQYAADLRRYINLLTRQRY-NH2; N-terminus and C-terminus assumed): under “in vivo, 4 nmol/kg”, the half-life is 32 h.

As to `CC[C@H](C)[C@H](NC(=O)[C@H](Cc1ccc(O)cc1)NC(=O)[C@H](CCCNC(=N)N)NC(=O)[C@H](CCCNC(=N)N)NC(=O)[C@H](CC(C)C)NC(=O)[C@H](CC(=O)O)NC(=O)[C@H](C)NC(=O)[C@H](C)NC(=O)[C@H](Cc1ccc(O)cc1)NC(=O)[C@H](CCC(N)=O)NC(=O)[C@H](C)NC(=O)[C@H](CC(C)C)NC(=O)[C@H](CCC(N)=O)NC(=O)[C@H](CCC(=O)O)NC(=O)[C@@H]1CCCN1C(=O)[C@@H](NC(=O)[C@H](C)NC(=O)[C@H](CC(N)=O)NC(=O)[C@H](CC(=O)O)NC(=O)CNC(=O)[C@@H]1CCCN1C(=O)[C@H](Cc1ccc(O)cc1)NC(=O)[C@@H](NC(=O)[C@@H]1CCCN1C(=O)[C@H](CCC(=O)O)NC(=O)[C@H](CC(C)C)NC(=O)[C@@H]1CCCN1)C(C)C)[C@@H](C)O)C(=O)N[C@@H](CC(N)=O)C(=O)N[C@@H](CC(C)C)C(=O)N[C@@H](CC(C)C)C(=O)N[C@H](C(=O)N[C@@H](CCCNC(=N)N)C(=O)N1CCC[C@H]1C(=O)N[C@@H](CCCCNC(=O)COCCOCCNC(=O)COCCOCCNC(=O)CC[C@H](NC(=O)CCCCCCCCCCCCCCCCC(=O)O)C(=O)O)C(=O)N[C@@H](Cc1ccc(O)cc1)C(N)=O)[C@@H](C)O` [SEQ ID NO: 47, N-epsilon35-[2-(2-{2-[2-(2-{2-[(S)-4-Carboxy-4-(17-carboxyheptadecanoylamino)butyrylamino]ethoxy}ethoxy)acetylamino]-ethoxy}ethoxy)acetyl][Leu17,Leu30,Lys35]hPP2-36] (H-PLEPVYPGDNATPEQLAQYAADLRRYINLLTRPK([AEEA-AEEA-γGlu-C18 diacid])Y-NH2), where the note is “10 nmol/kg”, the half-life is 78 h.

Consider `CC[C@H](C)[C@H](NC(=O)[C@H](Cc1ccc(O)cc1)NC(=O)[C@H](CCCNC(=N)N)NC(=O)[C@H](CCCCNC(=O)COCCOCCNC(=O)COCCOCCNC(=O)CC[C@H](NC(=O)CCCCCCCCCCCCCCCCC(=O)O)C(=O)O)NC(=O)[C@H](CC(C)C)NC(=O)[C@H](CC(=O)O)NC(=O)[C@H](C)NC(=O)[C@H](C)NC(=O)[C@H](Cc1ccc(O)cc1)NC(=O)[C@H](CCC(N)=O)NC(=O)[C@H](C)NC(=O)[C@H](CC(C)C)NC(=O)[C@H](CCC(N)=O)NC(=O)[C@H](CCC(=O)O)NC(=O)[C@@H]1CCCN1C(=O)[C@@H](NC(=O)[C@H](C)NC(=O)[C@H](CC(N)=O)NC(=O)[C@H](CC(=O)O)NC(=O)CNC(=O)[C@@H]1CCCN1C(=O)[C@H](Cc1ccc(O)cc1)NC(=O)[C@@H](NC(=O)[C@@H]1CCCN1C(=O)[C@H](CCC(=O)O)NC(=O)[C@H](CC(C)C)NC(=O)[C@@H]1CCCN1)C(C)C)[C@@H](C)O)C(=O)N[C@@H](CC(N)=O)C(=O)N[C@@H](CC(C)C)C(=O)N[C@@H](CC(C)C)C(=O)N[C@H](C(=O)N[C@@H](CCCNC(=N)N)C(=O)N1CCC[C@H]1C(=O)N[C@@H](CCCNC(=N)N)C(=O)N[C@@H](Cc1ccc(O)cc1)C(N)=O)[C@@H](C)O` [SEQ ID NO: 49, N-epsilon25-[2-(2-{2-[2-(2-{2-[(S)-4-Carboxy-4-(17-carboxyheptadecanoylamino)butyrylamino]ethoxy}ethoxy)acetylamino]-ethoxy}ethoxy)acetyl][Leu17,Lys25,Leu30]hPP2-36] (H-PLEPVYPGDNATPEQLAQYAADLK([AEEA-AEEA-γGlu-C18 diacid])RYINLLTRPRY-NH2), for which the half-life (10 nmol/kg) is 88 h.
